Results reported in patent US10086039B2, “Lamin A, an activator of longevity/anti-aging SIRT1 protein” (THE UNIVERSITY OF HONG KONG, priority 2012, dated 2018).

Experiments:
[1] = molecular target: T1, rhSIRT1 association with NM (Homo sapiens, UniProt Q96EB6); experiment: Association of rhSIRT1 with insoluble NM fraction in test tube; assay type: binding; settings: NM from wild-type and Zmpste24−/− cells, resveratrol 10 μM
T1 sequence (Q96EB6 1-747): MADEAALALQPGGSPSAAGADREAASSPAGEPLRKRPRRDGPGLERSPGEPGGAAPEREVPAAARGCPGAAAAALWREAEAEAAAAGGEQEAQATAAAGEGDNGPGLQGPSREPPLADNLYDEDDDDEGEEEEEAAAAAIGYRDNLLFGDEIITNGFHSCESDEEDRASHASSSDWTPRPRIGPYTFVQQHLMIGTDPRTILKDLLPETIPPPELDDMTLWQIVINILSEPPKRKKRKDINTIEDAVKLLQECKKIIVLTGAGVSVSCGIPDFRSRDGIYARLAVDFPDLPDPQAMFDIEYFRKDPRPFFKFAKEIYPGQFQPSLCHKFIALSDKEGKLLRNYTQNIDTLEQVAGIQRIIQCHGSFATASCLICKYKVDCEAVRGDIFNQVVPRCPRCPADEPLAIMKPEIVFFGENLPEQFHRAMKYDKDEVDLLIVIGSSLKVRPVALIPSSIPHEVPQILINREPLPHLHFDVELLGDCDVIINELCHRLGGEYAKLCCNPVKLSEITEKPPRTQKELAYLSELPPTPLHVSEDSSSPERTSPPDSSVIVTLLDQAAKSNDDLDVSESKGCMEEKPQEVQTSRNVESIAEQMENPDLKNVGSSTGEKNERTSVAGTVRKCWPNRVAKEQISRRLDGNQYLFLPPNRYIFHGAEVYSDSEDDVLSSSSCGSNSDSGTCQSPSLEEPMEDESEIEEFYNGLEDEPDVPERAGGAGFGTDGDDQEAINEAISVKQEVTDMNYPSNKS

SIRT1 = molecular target: T2, SIRT1 (Homo sapiens, UniProt Q96EB6); settings: cited from earlier work
T2 sequence (Q96EB6 1-747): T1 sequence (Q96EB6 1-747)

SMILES: Oc1ccc(C=Cc2cc(O)cc(O)c2)cc1 [resveratrol]
- association of rhSIRT1 with NM [1]: enhanced the association
- SIRT1 activation towards full-length native target proteins, including p53 and PGC-1α (SIRT1; Beher 2009, Dai 2010, Pacholec 2010): do not confer any SIRT1 activation
- SIRT1 activity towards fluorophore-conjugated synthetic peptide (Ac-Arg-His-Lys-LysAc-AMC) rather than the unmodified one (SIRT1; Borra et al., 2005, Kaeberlein et al.): specifically enhances
